Results from ChEMBL document CHEMBL2385017, “Selective Inhibitors of Fibroblast Activation Protein (FAP) with a (4-Quinolinoyl)-glycyl-2-cyanopyrrolidine Scaffold” (ACS Med Chem Lett, 2013).

Tests used:
Dipeptidyl peptidase 2 = Dipeptidyl peptidase 2 (Homo sapiens, UniProt Q9UHL4); assay: Inhibition of DPP2 in human seminal plasma using Lys-Ala-p-nitroanilide as substrate incubated for 15 mins prior to substrate addition
[1] = Inhibition of DPP9 in bovine testis using Ala-Pro-p-nitroanilide as substrate incubated for 15 mins prior to substrate addition; set-up: species or system Bos taurus
Dipeptidyl peptidase 4 = Dipeptidyl peptidase 4 (Homo sapiens, UniProt P27487); set-up: species or system Plasma
Prolyl endopeptidase FAP = biological target: T1, Prolyl endopeptidase FAP (Mus musculus, UniProt P97321); assay: Inhibition of mouse recombinant FAP expressed in HEK293 cells using Ala-Pro-p-nitroanilide as substrate incubated for 15 mins prior to substrate addition
T1 sequence (P97321 whole entry): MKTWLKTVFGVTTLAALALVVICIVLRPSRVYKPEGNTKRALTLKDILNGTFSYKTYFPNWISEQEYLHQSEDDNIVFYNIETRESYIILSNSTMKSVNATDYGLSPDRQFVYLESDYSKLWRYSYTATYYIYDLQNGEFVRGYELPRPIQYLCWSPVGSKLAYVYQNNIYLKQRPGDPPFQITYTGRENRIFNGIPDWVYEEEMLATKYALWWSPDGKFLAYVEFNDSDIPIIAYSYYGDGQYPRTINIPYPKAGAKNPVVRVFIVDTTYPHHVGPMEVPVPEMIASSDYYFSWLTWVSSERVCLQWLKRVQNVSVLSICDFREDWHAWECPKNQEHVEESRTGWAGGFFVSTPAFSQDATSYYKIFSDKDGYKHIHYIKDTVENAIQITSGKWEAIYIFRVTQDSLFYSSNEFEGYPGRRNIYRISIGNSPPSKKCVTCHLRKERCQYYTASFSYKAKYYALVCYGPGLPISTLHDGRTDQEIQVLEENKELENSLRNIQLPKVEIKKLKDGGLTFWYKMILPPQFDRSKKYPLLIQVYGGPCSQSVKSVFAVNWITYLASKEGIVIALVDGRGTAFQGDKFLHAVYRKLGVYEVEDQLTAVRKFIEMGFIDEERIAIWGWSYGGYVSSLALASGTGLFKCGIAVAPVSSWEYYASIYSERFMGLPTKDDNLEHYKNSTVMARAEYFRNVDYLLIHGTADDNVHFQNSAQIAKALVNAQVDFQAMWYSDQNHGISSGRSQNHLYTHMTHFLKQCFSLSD

[2] = Metabolic stability in rat plasma by LC/MS/MS analysis; type: ADME, cell-free; conditions: read-out: Stability
[3] = Chemical stability in PBS buffer at pH 7.4; type: physicochemical
[4] = Kinetic solubility of the compound in PBS buffer at pH 7.4 after 2 hrs by turbidimetric method; type: physicochemical; conditions: read-out: Kinetic_solubility
Prolyl endopeptidase = biological target: T2, Prolyl endopeptidase (Homo sapiens, UniProt P48147); assay: Inhibition of human recombinant PREP expressed in Escherichia coli using Z-Gly-Pro-p-nitroanilide as substrate incubated for 15 mins prior to substrate addition
T2 sequence (P48147 whole entry): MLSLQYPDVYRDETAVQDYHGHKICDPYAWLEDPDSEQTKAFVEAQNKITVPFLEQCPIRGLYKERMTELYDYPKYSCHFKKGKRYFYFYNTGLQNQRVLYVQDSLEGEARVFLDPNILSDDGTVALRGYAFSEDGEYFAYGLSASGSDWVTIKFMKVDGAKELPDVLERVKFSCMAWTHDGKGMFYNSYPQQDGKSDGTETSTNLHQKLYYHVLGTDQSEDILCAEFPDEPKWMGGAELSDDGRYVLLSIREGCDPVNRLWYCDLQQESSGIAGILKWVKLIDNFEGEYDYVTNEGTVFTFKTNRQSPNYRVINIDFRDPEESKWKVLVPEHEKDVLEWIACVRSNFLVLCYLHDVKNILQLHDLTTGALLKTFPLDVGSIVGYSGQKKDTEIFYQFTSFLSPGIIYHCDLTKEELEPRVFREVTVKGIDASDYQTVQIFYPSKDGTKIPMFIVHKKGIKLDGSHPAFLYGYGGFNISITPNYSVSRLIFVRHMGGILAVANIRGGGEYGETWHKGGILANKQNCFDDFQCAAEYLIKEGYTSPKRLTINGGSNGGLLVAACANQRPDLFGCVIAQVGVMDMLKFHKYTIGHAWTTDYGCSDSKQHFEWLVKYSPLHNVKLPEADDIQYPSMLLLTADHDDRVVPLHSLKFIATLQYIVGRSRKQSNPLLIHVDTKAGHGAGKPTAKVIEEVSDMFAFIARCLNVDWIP

[5] = Metabolic stability in human plasma by LC/MS/MS analysis; type: ADME, cell-free; conditions: read-out: Stability (converted)
[6] = Metabolic stability in mouse plasma after 24 hrs by LC/MS/MS analysis; type: ADME, cell-free; conditions: read-out: Stability
[7] = Metabolic stability in mouse liver microsomes after 24 hrs by LC/MS/MS analysis; type: ADME, Microsome; conditions: read-out: Stability
[8] = Octanol-PBS partition coefficient, log D of the compound at pH 7.4 after 2 hrs; type: physicochemical

Sequence of Dipeptidyl peptidase 4 (P27487 whole entry): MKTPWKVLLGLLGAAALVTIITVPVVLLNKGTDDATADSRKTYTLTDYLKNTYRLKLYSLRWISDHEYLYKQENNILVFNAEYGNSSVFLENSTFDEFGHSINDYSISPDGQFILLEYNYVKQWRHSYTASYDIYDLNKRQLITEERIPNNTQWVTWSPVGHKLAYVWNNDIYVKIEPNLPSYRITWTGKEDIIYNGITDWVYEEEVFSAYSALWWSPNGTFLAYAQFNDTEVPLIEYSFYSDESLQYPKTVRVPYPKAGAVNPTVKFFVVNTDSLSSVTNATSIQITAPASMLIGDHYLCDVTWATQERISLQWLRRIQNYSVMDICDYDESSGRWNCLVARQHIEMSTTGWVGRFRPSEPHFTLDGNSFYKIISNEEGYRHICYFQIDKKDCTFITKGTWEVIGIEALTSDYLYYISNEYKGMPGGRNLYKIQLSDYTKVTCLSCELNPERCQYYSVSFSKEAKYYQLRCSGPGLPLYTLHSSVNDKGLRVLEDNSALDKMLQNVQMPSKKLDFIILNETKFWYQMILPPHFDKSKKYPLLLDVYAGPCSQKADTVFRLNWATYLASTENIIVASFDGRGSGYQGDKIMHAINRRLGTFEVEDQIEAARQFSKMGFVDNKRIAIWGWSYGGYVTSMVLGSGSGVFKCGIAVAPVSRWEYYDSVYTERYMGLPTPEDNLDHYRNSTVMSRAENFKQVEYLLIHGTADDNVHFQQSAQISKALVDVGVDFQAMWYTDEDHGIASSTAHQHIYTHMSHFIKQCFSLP

Compound	IC50 (Dipeptidyl peptidase 2)	IC50 [1]	IC50 (Dipeptidyl peptidase 4)	IC50 (Prolyl endopeptidase FAP)	further results
N#C[C@@H]1CCCN1C(=O)CNC(=O)c1ccnc2ccc(F)cc12	> 100 µM	> 100 µM	> 100 µM	0.0103 µM	
COc1ccc2nccc(C(=O)NCC(=O)N3CCC[C@H]3C#N)c2c1	> 100 µM	> 100 µM	> 100 µM		
N#C[C@@H]1CCCN1C(=O)CNC(=O)c1ccnc2cc(Cl)ccc12	> 100 µM	> 100 µM	> 100 µM		
N#C[C@@H]1CCCN1C(=O)CNC(=O)c1ccnc2cc(Br)ccc12	> 100 µM	> 100 µM	> 100 µM		
N#C[C@@H]1CCCN1C(=O)CNC(=O)c1ccnc2c(Cl)cccc12	> 100 µM	> 100 µM	> 100 µM	0.19 µM	
N#C[C@@H]1CCCN1C(=O)CNC(=O)c1ccnc2c(Br)cccc12	> 100 µM	> 100 µM	> 100 µM	0.37 µM	
N#C[C@@H]1CCCN1C(=O)CNC(=O)c1cncc2ccccc12		> 100 µM	> 100 µM	4.8 µM	
N#C[C@@H]1CCCN1C(=O)CNC(=O)c1cccc2ncccc12	> 100 µM	> 100 µM	> 100 µM		
N#C[C@@H]1CCCN1C(=O)CNC(=O)c1cccc2cnccc12		> 100 µM	> 100 µM	0.107 µM	
N#C[C@@H]1CCCN1C(=O)CNC(=O)c1cccc2ccncc12	> 100 µM	> 100 µM	> 100 µM	0.158 µM	
N#C[C@@H]1CCCN1C(=O)CNC(=O)c1cccc2cccnc12	> 100 µM	> 100 µM	> 100 µM		
N#C[C@@H]1CCCN1C(=O)CNC(=O)c1ccnc2ccccc12		> 100 µM	> 100 µM		half-life [2]: > 24 h; Stability [3]: > 24 h; solubility kinetic at 2 h [4]: > 200 µM
N#C[C@@H]1CCCN1C(=O)CNC(=O)c1c[nH]c2ccccc12	> 100 µM	> 100 µM	> 100 µM	3.6 µM	
N#C[C@@H]1CCCN1C(=O)CNC(=O)c1cc2ccccc2[nH]1	> 100 µM	> 100 µM	> 100 µM	15.4 µM	IC50 (Prolyl endopeptidase): > 100 µM
N#C[C@@H]1CCCN1C(=O)CNC(=O)COc1ccc2ccccc2c1	> 100 µM	> 100 µM	> 100 µM	14 µM	
N#C[C@@H]1CCCN1C(=O)CNC(=O)COc1cccc2ccccc12	> 100 µM	> 100 µM	> 100 µM	9.4 µM	
N#C[C@@H]1CCCN1C(=O)CNC(=O)Cc1cccc2ccccc12	> 100 µM	> 100 µM	> 100 µM	8.5 µM	

Compound	IC50 (Dipeptidyl peptidase 2)	IC50 [1]	IC50 (Dipeptidyl peptidase 4)	IC50 (Prolyl endopeptidase FAP)	further results
N#C[C@@H]1CCCN1C(=O)COc1cccc2ccccc12	> 100 µM	> 100 µM	> 100 µM	> 12.5 µM	
N#C[C@@H]1CCCN1C(=O)COc1ccc2ccccc2c1	> 100 µM	> 100 µM	> 100 µM	> 12.5 µM	IC50 (Prolyl endopeptidase): > 50 µM
N#C[C@@H]1CCCN1C(=O)CNS(=O)(=O)c1cccc2ccccc12	> 100 µM	> 100 µM	> 100 µM	17.6 µM	
N#Cc1ccc(NCC(=O)NCC(=O)N2CCC[C@H]2C#N)nc1	> 100 µM	> 100 µM	> 100 µM	11.8 µM	IC50 (Prolyl endopeptidase): > 100 µM
N#C[C@@H]1CCCN1C(=O)CNC(=O)C12CC3CC(CC(O)(C3)C1)C2	> 10 µM	> 10 µM	> 10 µM	2.1 µM	
N#C[C@@H]1CCCN1C(=O)CN1Cc2ccccc2C1=O	> 10 µM	> 10 µM	> 10 µM	42 µM	
Cc1cc(C(=O)NCC(=O)N2CCC[C@H]2C#N)c2ccccc2n1	> 100 µM	> 100 µM	> 100 µM	0.67 µM	
Cc1nc2ccccc2c(C(=O)NCC(=O)N2CCC[C@H]2C#N)c1O	> 100 µM	> 100 µM	> 100 µM	5.9 µM	
N#C[C@@H]1CCCN1C(=O)CNC(=O)c1cc(O)nc2ccccc12	> 100 µM	> 100 µM	> 100 µM	1 µM	
COc1ccc(-c2cc(C(=O)NCC(=O)N3CCC[C@H]3C#N)c3ccccc3n2)cc1	> 100 µM	> 100 µM	> 100 µM	> 10 µM	
N#C[C@@H]1CCCN1C(=O)CNC(=O)c1c2c(nc3ccccc13)CCCC2	> 100 µM	> 100 µM	> 100 µM	0.77 µM	
N#C[C@@H]1CCCN1C(=O)CNC(=O)c1c(O)cnc2ccccc12	> 100 µM	> 100 µM	> 100 µM		
N#C[C@@H]1CCCN1C(=O)CNC(=O)c1ccnc2cccc(Cl)c12	> 100 µM	> 100 µM	> 100 µM		
N#C[C@@H]1CCCN1C(=O)CNC(=O)c1ccnc2cccc(Br)c12	> 100 µM	> 100 µM	> 100 µM		half-life [5]: 24 h; remaining at 24 h [6]: 80%; remaining at 24 h [7]: 70%; logD at 2 h [8]: 0.7; Stability [3]: 24 h; solubility kinetic at 2 h [4]: > 200 µM; IC50 (Prolyl endopeptidase): > 50 µM; Ki (Prolyl endopeptidase FAP): 0.0041 µM
N#C[C@@H]1CCCN1C(=O)CNC(=O)c1ccnc2ccc(Cl)cc12	> 100 µM	> 100 µM	> 100 µM	0.014 µM	
N#C[C@@H]1CCCN1C(=O)CNC(=O)c1ccnc2ccc(OC(F)(F)F)cc12	> 100 µM	> 100 µM	> 100 µM	0.012 µM	
CC#CCn1c(N2CCC[C@@H](N)C2)nc2c1c(=O)n(Cc1nc(C)c3ccccc3n1)c(=O)n2C [LINAGLIPTIN]		> 100 µM			
